# Measured values taken from patent publication US7626021B2, “Fused ring heterocycle kinase modulators” (SGX Pharmaceuticals, Inc., priority 2004, dated 2009).
# Molecular target: T1, Abl Y393F (Mus musculus, UniProt P00520, Y393F)
# T1 construct: 0.4 μg/ml Abl kinase domain; Met-Ser-Leu (vector-derived) (N); made in house
# T1 sequence (P00520 242-493 Y393F limits assumed): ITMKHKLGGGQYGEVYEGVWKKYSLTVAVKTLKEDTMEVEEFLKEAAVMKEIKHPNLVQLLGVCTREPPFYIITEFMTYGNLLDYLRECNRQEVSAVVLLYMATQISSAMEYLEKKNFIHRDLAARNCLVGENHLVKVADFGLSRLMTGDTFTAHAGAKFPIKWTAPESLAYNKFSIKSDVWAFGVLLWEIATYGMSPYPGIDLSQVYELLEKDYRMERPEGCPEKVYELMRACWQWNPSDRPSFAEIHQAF
# Assay: Abl Y393F kinase enzyme assay
# Format: biochemical
# Details: read-out: Abl_Y393F IC50
# Source text: Although the first of these examples uses the kinase domain of a mutant form of Abl T315I (“Abl T315I KD”), the kinase assays may use various forms of mutant and wild type enzymes, including, for example, the entire protein, the kinase domain, or a portion thereof (e.g. Abl Y393F). The kinases used in the assays may also be of varying phosphorylation states. In the c-Abl example, a mutant kinase at a zero phosphorylation state was used.
# In addition to the c-Abl PK/LDH coupled assay (above), homogeneous luminescence-based inhibitor screening assays were developed for c-Abl, MET, AurA, and PDK1 kinases (among others). Each of these assays made use of an ATP depletion assay (Kinase-Glo™, Promega Corporation, Madison, Wis.) to quantitate kinase activity. The Kinase-Glo™ format uses a thermostable luciferase to generate luminescent signal from ATP remaining in solution following the kinase reaction. The luminescent signal is inversely correlated with the amount of kinase activity.
# cAbl Luminescence-Based Enzyme Assay
# Materials: Abl substrate peptide=EAIYAAPFAKKK SEQ ID NO:1)-OH (Biopeptide, San Diego, Calif.), ATP (Sigma Cat#A-3377, FW=551), HEPES buffer, pH 7.5, Bovine serum albumin (BSA) (Roche 92423420), MgCl2, Staurosporine (Streptomyces sp. Sigma Cat#85660-1MG), white Costar 384-well flat-bottom plate (VWR Cat#29444-088), Abl kinase (see below), Kinase-Glo™ (Promega Cat#V6712).
# Stock Solutions: 10 mM Abl substrate peptide (13.4 mg/ml in miliQH2O) stored at −20° C.; 100 mM HEPES buffer, pH 7.5 (5 ml 1M stock+45 ml miliQH2O); 10 mM ATP (5.51 mg/ml in dH2O) stored at −20° C. (diluted […] into total of 10 ml miliQH2O daily=50 μM ATP working stock); 1% BSA (1 g BSA in 100 ml 0.1 M HEPES, pH 7.5, stored at −20° C.), 100 mM MgCl2; 200 μM Staurosporine, 2× Kinase-Glo™ reagent (made fresh or stored at −20° C.).
# Standard Assay Setup for 384-well format (20 μl kinase reaction, 40 μl detection reaction): 10 mM MgCl2; 100 μM Abl substrate peptide; 0.1% BSA; 1 μl test compound (in DMSO); 0.4 μg/ml Abl kinase domain; 10 μM ATP; 100 mM HEPES buffer. Positive controls contained DMSO with no test compound. Negative controls contained 10 μM staurosporine. The kinase reactions were initiated at time t=0 by the addition of ATP. Kinase reactions were incubated at 21° C. for 30 min, then 20 μl of Kinase-Glo™ reagent were added to each well to quench the kinase reaction and initiate the luminescence reaction. After a 20 min incubation at 21° C., the luminescence was detected in a plate-reading luminometer.
row,SMILES,IC50
1,O=C(c1cccc(-c2cnc3[nH]nc(-c4ccncc4Cl)c3c2)c1)N1CCOCC1,< 1000 nM
2,COc1ccccc1-c1n[nH]c2ncc(-c3cccc(C(=O)N(C)C)c3)cc12,< 1000 nM
3,Cc1cc(F)ccc1-c1n[nH]c2ncc(-c3cccc(C(=O)N4CCOCC4)c3)cc12,< 1000 nM
4,COc1ncc(-c2n[nH]c3ncc(-c4cccc(C(=O)N5CCOCC5)c4)cc23)c(OC)n1,< 1000 nM
5,COc1ccccc1-c1n[nH]c2ncc(-c3ccc(C(=O)NC4CC4)cc3)cc12,< 1000 nM
6,CCOc1ccccc1-c1n[nH]c2ncc(-c3cccc(C(=O)N4CCOCC4)c3)cc12,< 1000 nM
7,COc1ccccc1-c1n[nH]c2ncc(-c3cccc(C(=O)N4CCC(CO)CC4)c3)cc12,< 1000 nM
8,COc1ccccc1-c1n[nH]c2ncc(-c3cccc(C(=O)N4CCN(C)CC4)c3)cc12,< 1000 nM
9,Oc1cccc(-c2cnc3[nH]nc(-c4ccccc4)c3c2)c1,< 1000 nM
10,COc1ccccc1-c1n[nH]c2ncc(-c3cccc(C(=O)N4CCCC4)c3)cc12,< 1000 nM
11,COc1cc(-c2cnc3[nH]cc(-c4ccc(C)cc4)c3n2)ccc1O,< 1000 nM
12,COc1ccccc1-c1cnc2[nH]nc(-c3ccccc3OC)c2c1,< 1000 nM
13,COc1ccccc1-c1n[nH]c2ncc(-c3ccc(C(=O)N4CCN(C)CC4)cc3)cc12,< 1000 nM
14,COc1ccccc1-c1n[nH]c2ncc(-c3ccc(C(=O)N4CCCCC4)cc3)cc12,1000 to 10000 nM
15,c1ccc(-c2n[nH]c3ncc(-c4ccc5[nH]ccc5c4)cc23)cc1,< 1000 nM
16,CCc1ccccc1-c1n[nH]c2ncc(-c3cccc(C(=O)N4CCOCC4)c3)cc12,< 1000 nM
17,COc1ccccc1-c1n[nH]c2ncc(-c3ccc(C(=O)N4CCCC4)cc3)cc12,< 1000 nM
18,COc1ccccc1-c1n[nH]c2ncc(-c3cccc(C(=O)NC(C)C)c3)cc12,< 1000 nM
19,c1ccc(-c2n[nH]c3ncc(-c4cccnc4)cc23)cc1,< 1000 nM
20,COc1ccccc1-c1n[nH]c2ncc(Br)cc12,< 1000 nM
21,COc1ccccc1-c1n[nH]c2ncc(-c3cccc(S(=O)(=O)NC4CC4)c3)cc12,< 1000 nM

# The remaining lines, values ahead:
row,IC50,SMILES
1,< 1000 nM,COc1ccccc1-c1n[nH]c2ncc(-c3cnc4[nH]n(C)c(=O)c4c3)cc12
2,< 1000 nM,COc1c(F)cccc1-c1n[nH]c2ncc(-c3cccc(C(=O)N4CCOCC4)c3)cc12
3,< 1000 nM,Cc1ccsc1-c1n[nH]c2ncc(-c3cccc(C(=O)N4CCOCC4)c3)cc12
4,< 1000 nM,COc1ccccc1-c1n[nH]c2ncc(-c3ccc(O)c(C(=O)N4CCOCC4)c3)cc12
5,< 1000 nM,COc1cc(-c2cnc3[nH]nc(-c4ccccc4)c3c2)ccc1O
6,< 1000 nM,COc1ccccc1-c1n[nH]c2ncc(-c3cccc(C(=O)N4CCN(CCN(C)C)CC4)c3)cc12
7,< 1000 nM,O=C(c1cccc(-c2cnc3[nH]nc(-c4ccc5cc[nH]c5c4)c3c2)c1)N1CCOCC1
8,< 1000 nM,COc1ccccc1-c1n[nH]c2ncc(-c3ccc(C(=O)N4CCOCC4)cc3)cc12
9,< 1000 nM,Cn1ccc2cc(-c3n[nH]c4ncc(-c5cccc(C(=O)N6CCOCC6)c5)cc34)ccc21
10,< 1000 nM,O=C(c1cccc(-c2cnc3[nH]nc(-c4cccc5cccnc45)c3c2)c1)N1CCOCC1
11,< 1000 nM,COc1ccccc1-c1n[nH]c2ncc(-c3cccnc3)cc12
12,< 1000 nM,COc1ccccc1-c1c[nH]c2ncc(-c3cccc(C(=O)N(C)C)c3)nc12
13,< 1000 nM,CCN1CCN(C(=O)c2cccc(-c3cnc4[nH]nc(-c5cc(F)ccc5OC)c4c3)c2)CC1
